Measurements from patent US9029546B2, “Pyrazolopyridine kinase inhibitors” (Vertex Pharmaceuticals Incorporated, priority 2008, dated 2015).
pKi: −log10 of the molar value.

How the values were obtained:
PKC theta kinase = PKC theta kinase (Homo sapiens, UniProt Q04759); assay: PKC theta coupled-enzyme kinase assay (NADH consumption); format: biochemical; conditions: 240 μM ATP, 30° C.
Experimental: (§1) An assay buffer solution was prepared which consisted of 100 mM HEPES (pH 7.5), 10 mM MgCl2, 25 mM NaCl, 0.1 mM EDTA and 0.01% Brij. An enzyme buffer containing reagents to final assay concentrations of 0.00001% Triton X-100, 200 μg/mL Phosphatidylserine, 20 μg/mL Diacylglycerol, 360 μM NADH, 3 mM phosphoenolpyruvate, 70 μg/mL pyruvate kinase, 24 μg/mL lactate dehydrogenase, 2 mM DTT, 100 μM substrate peptide (ERMRPRKRQGSVRRRV (SEQ ID NO: 1)) and 18 nM PKC theta kinase was prepared in assay buffer. To 60 μL of this enzyme buffer, in a 384 well plate, was added 2 μL of VRT stock solution in DMSO. The mixture was allowed to equilibrate for 10 mins at 30° C. The enzyme reaction was initiated by the addition of 5 μL stock ATP solution prepared in assay buffer to a final assay concentration of 240 μM. Initial rate data was determined from the rate of change of absorbance at 340 nm (corresponding to stoichiometric consumption of NADH) using a Molecular Devices Spectramax plate reader (Sunnyvale, Calif.) over 15 mins at 30° C. For each Ki determination 12 data points covering the VRT concentration range of 0-20 μM were obtained in duplicate (DMSO stocks were prepared from an initial 10 mM VRT stock with subsequent 1:2 serial dilutions). Ki values were calculated from initial rate data by non-linear regression using the Prism software package (Prism 4.0a, Graphpad Software, San Diego, Calif.).

PKC Delta = PKC Delta (Homo sapiens, UniProt Q05655); assay: PKC delta coupled-enzyme kinase assay (NADH consumption); format: biochemical; conditions: 240 μM ATP, 30° C.
Experimental: [The source words this procedure for another target and reports this target under the same test.] as §1

PKC Delta, sequence (Q05655 whole entry): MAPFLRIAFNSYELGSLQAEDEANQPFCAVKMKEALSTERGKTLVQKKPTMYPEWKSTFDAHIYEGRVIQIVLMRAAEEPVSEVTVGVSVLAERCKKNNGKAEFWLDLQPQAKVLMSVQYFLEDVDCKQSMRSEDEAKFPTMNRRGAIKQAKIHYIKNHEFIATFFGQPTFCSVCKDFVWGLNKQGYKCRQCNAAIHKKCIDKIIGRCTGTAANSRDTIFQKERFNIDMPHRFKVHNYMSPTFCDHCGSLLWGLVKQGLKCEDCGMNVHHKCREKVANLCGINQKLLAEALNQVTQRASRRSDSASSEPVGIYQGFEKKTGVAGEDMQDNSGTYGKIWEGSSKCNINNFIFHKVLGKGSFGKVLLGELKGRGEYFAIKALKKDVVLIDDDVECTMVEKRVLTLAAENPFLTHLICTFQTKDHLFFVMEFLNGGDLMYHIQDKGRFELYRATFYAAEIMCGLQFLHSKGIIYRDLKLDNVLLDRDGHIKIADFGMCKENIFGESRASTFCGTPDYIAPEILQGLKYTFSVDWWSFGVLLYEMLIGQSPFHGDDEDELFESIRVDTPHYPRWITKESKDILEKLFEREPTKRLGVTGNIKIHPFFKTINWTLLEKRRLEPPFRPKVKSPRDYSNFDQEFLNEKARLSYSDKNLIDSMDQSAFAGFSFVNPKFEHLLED
PKC theta kinase, sequence (Q04759 whole entry): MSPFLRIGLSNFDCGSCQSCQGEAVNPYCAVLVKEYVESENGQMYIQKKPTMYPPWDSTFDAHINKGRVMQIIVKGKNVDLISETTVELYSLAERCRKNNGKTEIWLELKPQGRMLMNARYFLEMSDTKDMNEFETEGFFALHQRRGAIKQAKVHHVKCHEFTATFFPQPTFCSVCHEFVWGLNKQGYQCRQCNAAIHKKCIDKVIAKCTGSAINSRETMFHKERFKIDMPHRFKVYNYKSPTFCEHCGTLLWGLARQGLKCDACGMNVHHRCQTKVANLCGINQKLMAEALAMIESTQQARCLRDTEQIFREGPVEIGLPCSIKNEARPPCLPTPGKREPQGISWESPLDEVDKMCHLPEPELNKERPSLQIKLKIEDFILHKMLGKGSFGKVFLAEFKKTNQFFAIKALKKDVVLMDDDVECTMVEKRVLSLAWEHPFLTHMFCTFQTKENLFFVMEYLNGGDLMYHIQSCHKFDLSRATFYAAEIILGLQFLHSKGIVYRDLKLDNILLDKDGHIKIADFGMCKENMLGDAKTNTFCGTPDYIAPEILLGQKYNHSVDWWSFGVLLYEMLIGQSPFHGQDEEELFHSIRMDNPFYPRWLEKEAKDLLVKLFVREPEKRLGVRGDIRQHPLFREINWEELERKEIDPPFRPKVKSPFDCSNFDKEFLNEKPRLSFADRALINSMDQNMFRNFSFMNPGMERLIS

SMILES	pKi (PKC theta kinase)	pKi (PKC Delta)
CC(C)CC1(CNc2ccc(F)c(-c3n[nH]c4ncccc34)n2)CNC1 [Compound 68]	> 7.30	> 7.30
CC(C)(CN)COc1ccc(C(F)(F)F)c(-c2n[nH]c3ncccc23)n1 [Compound 54]	< 6.15	< 6.15
FC(F)(F)c1ccc(NCC2CCCNC2)nc1-c1n[nH]c2ncccc12 (stereo not shown) [Compound 31]	< 6.15	< 6.15
CC(C)C[C@H](N)COc1ccc(C(F)(F)F)c(-c2n[nH]c3ncccc23)n1 [Compound 38]	> 6.30	> 6.30
NC1CCCCC1Nc1cccc(-c2n[nH]c3ncccc23)n1 (stereo not shown) [Compound 3]	> 6.30	> 6.30
OCCNc1ccc(C(F)(F)F)c(-c2n[nH]c3ncccc23)n1 [Compound 82]	< 6.15	< 6.15
FC(F)(F)c1ccc(NCCN2CCCC2)nc1-c1n[nH]c2ncccc12 [Compound 60]	< 6.15	< 6.15
FC(F)(F)c1ccc(OCCC2CCCCN2)nc1-c1n[nH]c2ncccc12 (stereo not shown) [Compound 43]	< 6.15	< 6.15
FC(F)(F)c1ccc(NCC2CCNC2)nc1-c1n[nH]c2ncccc12 (stereo not shown) [Compound 29]	< 6.15	< 6.15
CC(O)CNc1ccc(C(F)(F)F)c(-c2n[nH]c3ncccc23)n1 (stereo not shown) [Compound 53]	< 6.15	< 6.15
CC(C)(C)[C@H](N)COc1ccc(C(F)(F)F)c(-c2n[nH]c3ncccc23)n1 [Compound 72]	< 6.15	< 6.15
NC(CNc1ccc(C(F)(F)F)c(-c2n[nH]c3ncccc23)n1)c1ccccc1 (stereo not shown) [Compound 36]	> 7.30	> 7.30
FC(F)(F)c1ccc(NCC2CCCN2)nc1-c1n[nH]c2ncccc12 (stereo not shown) [Compound 28]	< 6.15	< 6.15
OCCN(CCO)c1ccc(C(F)(F)F)c(-c2n[nH]c3ncccc23)n1 [Compound 76]	< 6.15	< 6.15
N[C@H](CNc1cccc(-c2n[nH]c3ncccc23)n1)c1ccccc1 [Compound 11]	> 6.30	> 6.30
CC(C)C[C@H](N)CNc1cccc(-c2n[nH]c3ncccc23)n1 [Compound 16]	> 6.30	> 6.30
NC1CCC(Oc2ccc(C(F)(F)F)c(-c3n[nH]c4ncccc34)n2)CC1 (stereo not shown) [Compound 59]	< 6.15	< 6.15
c1cc(NCC2CCCNC2)nc(-c2n[nH]c3ncccc23)c1 (stereo not shown) [Compound 12]	> 6.30	> 6.30
NC1CCC(Nc2ccc(C(F)(F)F)c(-c3n[nH]c4ncccc34)n2)CC1 (stereo not shown) [Compound 35]	< 6.15	< 6.15
FC(F)(F)c1ccc(N[C@@H]2CCc3ccccc32)nc1-c1n[nH]c2ncccc12 [Compound 85]	< 6.15	< 6.15
FC(F)(F)c1ccc(Nc2ccc3nc[nH]c3c2)nc1-c1n[nH]c2ncccc12 [Compound 49]	< 6.15	< 6.15
OCc1cccc(Nc2ccc(C(F)(F)F)c(-c3n[nH]c4ncccc34)n2)c1 [Compound 78]	< 6.15	< 6.15
FC(F)(F)c1ccc(NC2CCCNC2)nc1-c1n[nH]c2ncccc12 (stereo not shown) [Compound 26]	< 6.15	< 6.15
